From article PMC3783749 (Indian Journal of Pharmaceutical Sciences, 2013) come the findings set out here.

For series [1], the system named is Candida tropicalis (ATCC 1369). The series is described as follows: Antifungal MIC by broth dilution. Type of series: cell-based. To be noted: read-out: MIC values, Ct. On the technique in general: Dilution methods test growth across graded concentrations, often in twofold steps.
For series [2], the system named is Klebsiella pneumoniae ATCC 10031. The series is described as follows: MIC by broth microdilution method. Type of series: cell-based. To be noted: Gram-negative; 37°, 18 h.

≈ marks a conversion by molar mass, not a printed value.

A word on the MIC: it is the lowest concentration that inhibits growth of the organism. `Cc1ccc(C)n1-c1ccc(-c2nnc(-c3cccc([N+](=O)[O-])c3)[nH]2)cc1` [Compound 4e, 3-(4-(2,5-Dimethyl-1H-pyrrol-1-yl)phenyl)-5-(3-nitrophenyl)-4H-1,2,4-triazole]: the minimal inhibitory concentration (MIC) in series [1] is 31.2 µg/mL (≈ 87 µM). On the same count and under the same terms, to `Cc1ccc(C)n1-c1ccc(-c2nnc(-c3ccc(O)cc3)[nH]2)cc1` [Compound 4g, 4-(5-(4-(2,5-Dimethyl-1H-pyrrol-1-yl)phenyl)-4H-1,2,4-triazol-3-yl) phenol] belongs 31.2 µg/mL (≈ 94.6 µM). For the molecule `Cc1ccc(C)n1-c1ccc(C(=O)NNC=O)cc1` [Compound 5, 4-(2,5-dimethyl-1H-pyrrol-1-yl)-N’-formylbenzohydrazide], the “MIC values, Kp” value in series [2] was 31.25 µg/mL (≈ 121 µM). For the molecule `Cc1ccc(C)n1-c1ccc(-c2nnc(-c3ccccc3[N+](=O)[O-])[nH]2)cc1` [Compound 4f, 3-(4-(2,5-Dimethyl-1H-pyrrol-1-yl)phenyl)-5-(2-nitrophenyl)-4H-1,2,4-triazole], the minimal inhibitory concentration (MIC) in series [1] was found to be 31.2 µg/mL (≈ 87 µM).
